Reference: article PMC12406203 (Journal of Medicinal Chemistry, 2025)
“And” between values parts separate entries of the source, which are not always exact repeats. Equal entries are not always repeated. Where two headings read alike, the source gives them in different places.

Experiments:
[1] = tested on: hAChE
[2] = biological target: hBChE
[3] = biological target: p38α MAPK
[4] = tested on: hAChE; remark: listed apart in the source
[5] = biological target: hBChE; remark: listed apart in the source
[6] = biological target: T1, hAChE (Homo sapiens, UniProt P22303); conditions: residual activity at 100 μM; mean ± SD, one experiment in triplicate
T1 sequence (P22303 32-614): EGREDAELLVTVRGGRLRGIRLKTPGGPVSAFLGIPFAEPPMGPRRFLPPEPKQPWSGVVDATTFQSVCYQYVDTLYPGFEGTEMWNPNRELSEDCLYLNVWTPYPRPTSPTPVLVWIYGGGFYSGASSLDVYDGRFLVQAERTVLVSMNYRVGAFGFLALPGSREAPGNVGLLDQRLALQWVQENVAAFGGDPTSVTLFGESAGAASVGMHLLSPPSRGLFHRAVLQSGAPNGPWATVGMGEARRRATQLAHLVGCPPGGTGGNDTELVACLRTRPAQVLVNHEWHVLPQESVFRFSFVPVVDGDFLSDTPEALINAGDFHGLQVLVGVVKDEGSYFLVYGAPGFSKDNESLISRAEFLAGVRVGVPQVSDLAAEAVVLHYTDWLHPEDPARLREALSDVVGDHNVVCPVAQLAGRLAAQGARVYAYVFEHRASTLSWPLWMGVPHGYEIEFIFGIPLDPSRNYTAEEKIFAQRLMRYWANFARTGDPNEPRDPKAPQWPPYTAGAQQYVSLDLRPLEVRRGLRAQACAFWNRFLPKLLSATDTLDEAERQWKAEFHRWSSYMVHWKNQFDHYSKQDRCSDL
Protocol: (§1) The inhibitory potencies of the compounds against the ChEs were determined using the method of Ellman. […] The final content of DMSO was always 1% [v/v]. […] The initial velocities in the presence (v i ) and absence (v 0) of the test compounds were calculated. The inhibitory potencies were expressed as the residual activities, according to RA = (v i – b)/(v 0 – b), where b is the blank value using phosphate buffer without ChEs. For IC50 determinations, at least seven different concentrations for each compound were used. The IC50 values were obtained by plotting the residual ChE activities against the applied inhibitor concentrations, with the experimental data fitted to a four-parameter logistic function (GraphPad Prism 10.0).

[7] = biological target: T2, hBChE (Homo sapiens, UniProt P06276); assay: biochemical; conditions: hBChE IC50 ± SEM, two independent experiments, each in triplicate
T2 sequence (P06276 29-602): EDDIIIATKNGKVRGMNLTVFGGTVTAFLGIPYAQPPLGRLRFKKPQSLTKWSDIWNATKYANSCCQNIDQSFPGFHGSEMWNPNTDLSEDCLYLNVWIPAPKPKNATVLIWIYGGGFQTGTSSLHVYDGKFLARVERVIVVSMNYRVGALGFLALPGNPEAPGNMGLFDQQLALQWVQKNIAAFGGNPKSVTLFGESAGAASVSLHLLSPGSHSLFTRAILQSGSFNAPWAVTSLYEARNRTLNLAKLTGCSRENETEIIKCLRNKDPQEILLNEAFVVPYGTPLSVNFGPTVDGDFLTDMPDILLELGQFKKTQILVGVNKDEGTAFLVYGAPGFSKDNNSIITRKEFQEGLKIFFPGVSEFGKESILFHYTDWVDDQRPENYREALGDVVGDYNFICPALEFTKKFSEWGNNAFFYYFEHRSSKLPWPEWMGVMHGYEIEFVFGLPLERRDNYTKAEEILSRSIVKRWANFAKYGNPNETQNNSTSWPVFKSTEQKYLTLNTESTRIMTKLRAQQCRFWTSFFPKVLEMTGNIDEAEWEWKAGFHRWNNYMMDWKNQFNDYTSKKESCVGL
Protocol: as §1

[8] = biological target: T3, human p38α MAPK (Homo sapiens, UniProt Q16539); assay: biochemical; conditions: p38α MAPK IC50 ± SEM, two independent experiments, each in triplicate
T3 sequence (Q16539 whole entry): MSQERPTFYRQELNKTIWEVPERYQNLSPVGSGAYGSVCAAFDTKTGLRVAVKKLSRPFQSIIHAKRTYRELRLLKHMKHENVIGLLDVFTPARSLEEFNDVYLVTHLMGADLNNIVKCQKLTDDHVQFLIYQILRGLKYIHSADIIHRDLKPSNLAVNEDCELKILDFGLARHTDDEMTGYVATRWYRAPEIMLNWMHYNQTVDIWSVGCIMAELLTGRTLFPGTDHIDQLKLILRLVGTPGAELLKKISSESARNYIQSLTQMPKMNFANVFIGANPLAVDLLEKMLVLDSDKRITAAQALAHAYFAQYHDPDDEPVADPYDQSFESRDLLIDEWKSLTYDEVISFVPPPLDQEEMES
Protocol: (§2) The inhibitory activities against human p38α MAPK were evaluated using the commercially available ADP-Glo Kinase Assay (Promega, Inc., USA).
(§3) For the reference sample, 1% [v/v] DMSO replaced the inhibitor solution. […] The enzyme reaction was started with the addition of the enzyme solution. The DMSO concentration in the test solution was maintained at 1% [v/v]. The plate was incubated for 60 min. Then 5 μL of ADP-Glo reagent was added, followed by a 40 min incubation at room temperature. […] All incubations were performed at room temperature. The RA and IC50 values were calculated as described above (ChEs inhibitory potency).

[9] = tested on: p38α MAPK; remark: listed apart in the source
[10] = biological target: T3, human p38α MAPK; conditions: for p38α MAPK RA at 100 μM: residual activity at 100 μM, mean ± SD, one experiment in triplicate
Protocol: as §2, §3

[11] = biological target: T1, hAChE; assay: biochemical; conditions: hAChE IC50 ± SEM, two independent experiments, each in triplicate
Protocol: as §1

[12] = biological target: T2, hBChE; conditions: for hBChE RA at 100 μM: residual activity at 100 μM, mean ± SD, one experiment in triplicate
Protocol: as §1

Molecule	RA at 100 µM [4]	IC50 [5]	hAChE RA at 100 μM [6]	IC50 [7]	IC50 [8]	p38α MAPK RA at 100 μM [10]	IC50 [11]	IC50 [9]	further results
CN(C)CCNC(=O)c1cc2c(cnn2C2C=CCCC2)cc1Oc1ccc(F)cc1F (stereo not drawn) [Compound 83, 1-(Cyclohex-2-en-1-yl)-5-(2,4-difluorophenoxy)-N-(2-(dimethylamino)ethyl)-1H-indazole-6-carboxamide]	52.9 ± 2.7%	8.35 µM	52.9% and 53 ± 3% and 52.9 ± 2.7%	8.35 µM	0.088 ± 0.02 µM				RA at 100 µM [1]: 53 ± 3%; IC50 [2]: 8.35 µM; IC50 [3]: 0.088 µM
COC1CCCN(CCNC(=O)c2cc3nn(CC4CCCCC4)cc3cc2Oc2ccc(F)cc2F)C1 (stereo not drawn) [Compound 101]	51.8 ± 1.6%	0.184 µM	51.8 ± 1.6%	0.184 ± 0.031 µM		94.3% and 94.3 ± 2.4%			RA at 100 µM [9]: 94.3 ± 2.4%
CC(C)Cn1ncc2cc(Oc3ccc4ccccc4c3)c(C(=O)NCCN(C)C)cc21 [Compound 90, N-(2-(Dimethylamino)ethyl)-1-isobutyl-5-(naphthalen-2-yloxy)-1H-indazole-6-carboxamide]				11.5 ± 2 µM		9.5 ± 0.6%	116 ± 27.8 µM		IC50 [4]: 116 µM; RA at 100 µM [9]: 9.5 ± 0.6%
O/N=C/c1cc[n+](COC[n+]2ccc(/C=N/O)cc2)cc1 [Obidoxime, reference compound]									CNS (+/–) (predicted BBB permeation from Pe): CNS– (CNS– indicates low predicted BBB permeation [Pe (×10–6 cm/s) < 2.0])
O=C(NCCN1CCOCC1)c1cc2nn(CC3CCCCC3)cc2cc1Oc1ccc(F)cc1F [Compound 103]	78.3 ± 2.1%	10.8 µM	78.3 ± 2.1%	10.8 ± 2.07 µM		66.8% and 66.8 ± 5.9%			RA at 100 µM [9]: 66.8 ± 5.9%
Methyl-1-(cyclopropylmethyl)-5-(2,4-difluorophenoxy)-1H-indazole-6-carboxylate [Compound 27]			81.1% and 81.1 ± 2.3%						hBChE RA at 100 μM [12]: 76.6% and 76.6 ± 11.7%; IC50 ([10]; read-out: p38α MAPK IC50 ± SEM, two independent experiments, each in triplicate): 0.33 ± 0.158 µM
COc1ccc(Oc2cc3cnn(CC(C)C)c3cc2C(=O)NCCN(C)C)cc1 [Compound 91, N-(2-(Dimethylamino)ethyl)-1-isobutyl-5-(4-methoxyphenoxy)-1H-indazole-6-carboxamide]	75.2 ± 3.8%		75.2% and 75.2 ± 3.8%			0.9 ± 0.3%			RA at 100 µM [5]: 54.1 ± 1.3%; RA at 100 µM [9]: 0.9 ± 0.3%; hBChE RA at 100 μM [12]: 54.1% and 54.1 ± 1.3%
5-(2,4-Difluorobenzyl)-N-(2-(dimethylamino)ethyl)-1-methyl-2H-indazole-6-carboxamide [Compound 109]			81.4 ± 7.5%			89.6% and 89.6 ± 13.6%			IC50 ([12]; read-out: hBChE IC50 ± SEM, two independent experiments, each in triplicate): 1.06 ± 0.97 µM
CO/N=C(\C(=O)N[C@@H]1C(=O)N2C(C(=O)O)=C(COC(N)=O)CS[C@H]12)c1ccco1 [Cefuroxime, reference compound]									CNS (+/–) (PAMPA): CNS– (key: CNS+ indicates high predicted BBB permeation [Pe (×10–6 cm/s) > 4.0]; CNS– indicates low predicted BBB permeation [Pe (×10–6 cm/s) < 2.0])
CN(C)CCCNC(=O)c1cc2nn(CC3CCCCC3)cc2cc1Oc1ccc(F)cc1F [Compound 100, 2-(Cyclohexylmethyl)-5-(2,4-difluorophenoxy)-N-(3-(dimethylamino)propyl)-2H-indazole-6-carboxamide]				0.499 ± 0.045 µM	16.2 ± 2.97 µM		41.9 ± 13.9 µM	16.2 µM	IC50 [4]: 41.9 µM
CC(C)Cn1ncc2cc(Oc3ccc(F)cc3)c(C(=O)NCCN(C)C)cc21 [Compound 88, N-(2-(Dimethylamino)ethyl)-5-(4-fluorophenoxy)-1-isobutyl-1H-indazole-6-carboxamide]		6.38 µM		6.38 ± 0.511 µM	0.276 ± 0.015 µM			0.276 µM	IC50 [4]: 71.3 µM
CN(C)CCCNC(=O)c1cc2c(cnn2CC2CC2)cc1Oc1ccc(F)cc1F [Compound 74, 1-(Cyclopropylmethyl)-5-(2,4-difluorophenoxy)-N-(3-(dimethylamino)propyl)-1H-indazole-6-carboxamide]				8.68 ± 1.83 µM	0.096 ± 0.011 µM		110 ± 38.4 µM	0.096 µM	IC50 [4]: 110 µM
CN(C)CCNC(=O)c1cc2c(cnn2CC2CC2)cc1Oc1ccc(F)cc1F [Compound 73, 1-(Cyclopropylmethyl)-5-(2,4-difluorophenoxy)-N-(2-(dimethylamino)ethyl)-1H-indazole-6-carboxamide]				10.5 ± 1.51 µM	0.362 ± 0.139 µM		83.9 ± 28.9 µM		IC50 [1]: 83.9 µM; IC50 [3]: 0.362 µM
O=C(NCCn1ccnc1)c1cc2c(cnn2CC2CCCCC2)cc1Oc1ccc(F)cc1F [Compound 82, N-(2-(1H-Imidazol-1-yl)ethyl)-1-(cyclohexylmethyl)-5-(2,4-difluorophenoxy)-1H-indazole-6-carboxamide]	65.1 ± 2.5%	18.7 µM	65.1% and 65.1 ± 2.5%	18.7 ± 6.1 µM	0.218 ± 0.017 µM			0.218 µM	
N-(2-(1H-Pyrrol-1-yl)ethyl)-1-(cyclohexylmethyl)-5-(2,4-difluorophenoxy)-2H-indazole-6-carboxamide [Compound 104]			67.6 ± 2.3%			81.2% and 81.2 ± 6.6%			hBChE RA at 100 μM [12]: 34.4±1.5%
CC(C)Cn1ncc2cc(S(=O)(=O)c3ccc(F)cc3F)c(C(=O)NCCN(C)C)cc21 [Compound 93, 5-((2,4-Difluorophenyl)sulfonyl)-N-(2-(dimethylamino)ethyl)-1-isobutyl-1H-indazole-6-carboxamide]	98.0 ± 2.7%		98.0% and 98.0 ± 2.7%			5.9 ± 0.2%			RA at 100 µM [5]: 77.6 ± 3.1%; RA at 100 µM [9]: 5.9 ± 0.2%; hBChE RA at 100 μM [12]: 77.6% and 77.6 ± 3.1%
CN(C)CCNC(=O)c1cc2c(cnn2CC2CCCCC2)cc1Oc1ccc(F)cc1F [Compound 75, 1-(Cyclohexylmethyl)-5-(2,4-difluorophenoxy)-N-(2-(dimethylamino)ethyl)-1H-indazole-6-carboxamide]				2.89 µM and 2.9 µM	0.142 ± 0.079 µM		64.4 ± 24.5 µM		IC50 [1]: 64.4 µM; IC50 [3]: 0.142 µM; IC50 [4]: 64.4 µM
CN(C)CCNC(=O)c1cc2nn(CC3CCCCC3)cc2cc1Oc1ccc(F)cc1F [Compound 99, 2-(Cyclohexylmethyl)-5-(2,4-difluorophenoxy)-N-(2-(dimethylamino)ethyl)-2H-indazole-6-carboxamide]				0.167 ± 0.0203 µM	6.78 ± 2.85 µM		28.9 ± 8.16 µM		IC50 [1]: 28.9 µM; IC50 [3]: 6.78 µM
CC(C)Cn1ncc2cc(Oc3cccc4ccccc34)c(C(=O)NCCN(C)C)cc21 [Compound 89, N-(2-(Dimethylamino)ethyl)-1-isobutyl-5-(naphthalen-1-yloxy)-1H-indazole-6-carboxamide]				10.6 µM		0.9 ± 0.3% and 1 ± 0%	61.3 µM		IC50 [1]: 61.3 µM; RA (1 μM) [3]: RA (1 μM): 24 ± 0%; RA (10 μM) [3]: RA (10 μM): 5 ± 0%; RA (100 μM) [3]: RA (100 μM): 1 ± 0%; IC50 [4]: 61.3 µM; RA at 100 µM [9]: 0.9 ± 0.3%; p38α MAPK RA (1 μM) ([10]; residual activity at 1 μM): 24 ± 0%; p38α MAPK RA (10 μM) ([10]; residual activity at 10 μM): 5 ± 0%
COCC1CCCN(CCNC(=O)c2cc3c(cnn3CC3CCCCC3)cc2Oc2ccc(F)cc2F)C1 (racemic) [Compound 79, (±)-1-(Cyclohexylmethyl)-5-(2,4-difluorophenoxy)-N-(2-(3-(methoxymethyl)piperidin-1-yl)ethyl)-1H-indazole-6-carboxamide]	*11.6 ± 1.3%	3.6 µM		3.6 ± 0.825 µM	0.379 ± 0.126 µM			0.379 µM	
O=C(NCCn1cccc1)c1cc2c(cnn2CC2CCCCC2)cc1Oc1ccc(F)cc1F [Compound 81, N-(2-(1H-Pyrrol-1-yl)ethyl)-1-(cyclohexylmethyl)-5-(2,4-difluorophenoxy)-1H-indazole-6-carboxamide]	58.7 ± 3.6%	80 µM	58.7% and 58.7 ± 3.6%					75.8 µM	
CC(C)Cn1ncc2cc(Sc3ccc(F)cc3F)c(C(=O)NCCN(C)C)cc21 [Compound 92, 5-((2,4-Difluorophenyl)thio)-N-(2-(dimethylamino)ethyl)-1-isobutyl-1H-indazole-6-carboxamide]	62.8 ± 3.0%	2.25 µM	62.8% and 63 ± 3% and 62.8 ± 3.0%	2.25 µM	0.053 ± 0.017 µM				RA at 100 µM [1]: 63 ± 3%; IC50 [2]: 2.25 µM; IC50 [3]: 0.053 µM
O=C(NCCN1CCOCC1)c1cc2c(cnn2CC2CCCCC2)cc1Oc1ccc(F)cc1F [Compound 80, 1-(Cyclohexylmethyl)-5-(2,4-difluorophenoxy)-N-(2-morpholinoethyl)-1H-indazole-6-carboxamide]	51.9 ± 1.7%	5.22 µM	51.9% and 51.9 ± 1.7%					0.744 µM	
